# Tested on: MEF/GFP-Stat3α cells
# Test: HTFM cytoplasmic-to-nuclear translocation of GFP-Stat3α
# Type: cell-based, murine
# Settings: for IC50: Mus musculus, 0.5 h, MEF/GFP-Stat3α, IL-6 200 ng/ml and IL-6sR 250 ng/ml 30 min, read-out: HTM IC50 (ligand-mediated nuclear translocation of GFP-Stat3α)
# Method: Coverslips were examined by confocal fluorescent microscopy using filters to detect GFP (column one), DAPI (column two) or both (merge; column three). In panel B, MEF-GFP-Stat3 cells were grown in 96-well plates with optical glass bottoms and pretreated with the indicated compound at the indicated concentrations in quadruplicate for 1 hour then stimulated with IL-6 (200 ng/ml) and IL-6sR (250 ng/ml) for 30 minutes. Cells were fixed and the plates were examined by high-throughput microscopy to determine the fluorescence intensity in the nucleus (FLIN) and the % ΔFLINMax was calculated as described in Example 1. Data shown are mean±SD and are representative of 2 or more studies. Best-fit curves were generated based on 4 Parameter Logistic Model/Dose Response One Site/XLfit 4.2, IDBS and were used to calculate IC50 (Table 1).
# Confocal and high-throughput fluorescence microscopy. Confocal and highthroughput fluorescence microscopy (HTFM) of MEF/GFP-Stat3α cells were performed as described (Huang et al., 2007). Briefly, for confocal fluorescence microscopy, cells were grown in 6-well plates containing a cover slip. For HTFM, cells were seeded into 96-well CC3 plates at a density of 5,000 cells/well using an automated plating system. Cells were cultured under standard conditions until 85-90% confluent. Cells were pretreated with compound for 1 hour at 37° C. then stimulated with IL-6 (200 ng/ml) and IL-6sR (250 ng/ml) for 30 minutes. Cells were fixed with 4% formaldehyde in PEM Buffer (80 mM Potassium PIPES, pH 6.8, 5 mM EGTA pH 7.0, 2 mM MgCl2) for 30 minutes at 4° C., quenched in 1 mg/ml of NaBH4 (Sigma) in PEM buffer and counterstained for 1 min in 4,6-diamidino-2-phenylindole (DAPI; Sigma; 1 mg/ml) in PEM buffer. Cover slips were examined by confocal fluorescent microscopy. Plates were analyzed by automated HTFM using the Cell Lab IC Image Cytometer (IC100) platform and CytoshopVersion 2.1 analysis software (Beckman Coulter). Nuclear translocation is quantified by using the fraction localized in the nucleus (FLIN) measurement (Sharp et al., 2006).
# Following its phosphorylation on Y705, Stat3 undergoes a change in conformation from head-to-head dimerization mediated through its N-terminal oligomerization domain to tail-to-tail dimerization mediated by reciprocal SH2/pY705-peptide ligand interactions. This conformational change is followed by nuclear accumulation. Compounds that targeted SH2/pY-peptide ligand interactions of Stat3 would be expected to inhibit nuclear accumulation of Stat3. […]
# EXP IIB. High throughput fluorescence microscopy (HTFM), cytoplasm-to-nucleus translocation inhibition assays. […] Plates are analyzed by automated HTFM using the Cell Lab IC Image Cytometer (IC100) platform and CytoshopVersion 2.1 analysis software (Beckman Coulter). […]
Structure (SMILES),IC50,blocked ligand-mediated nuclear translocation of GFP-Stat3 (MEF/GFP-Stat3α cells)
"O=C(O)c1ccc(C=CC(=O)c2ccc3c(c2)OCCO3)cc1 [Cpd3, 4-[3-(2,3-dihydro-1,4-benzodioxin-6-yl)-3-oxo-1-propen-1-yl]benzoic acid]",131 µM,
"CCOc1cc(C=C2C(=O)c3ccccc3C2=O)cc(Cl)c1OCc1cccc(C(=O)O)c1 [Cpd3-2, 3-({2-chloro-4-[(1,3-dioxo-1,3-dihydro-2H-inden-2-ylidene)methyl]-6-ethoxyphenoxy}methyl)benzoic acid]",150 µM,
"CCN1C(=O)C(=Cc2ccc(-c3cc(C(=O)O)ccc3Cl)o2)C(=O)N(CC)C1=S [Cpd30-12, 4-chloro-3-{5-[(1,3-diethyl-4,6-dioxo-2-thioxotetrahydro-5(2H)-pyrimidinylidene)methyl]-2-furyl}benzoic acid]",> 300 µM,not

# Reference: US10112933B2, “Methods and compositions for treatment of fibrosis” (Baylor College of Medicine, priority 2013, dated 2018)
